Measurements taken from ChEMBL document CHEMBL1201862, “PubChem BioAssay data set” (2004).
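Growth conditions: 96-well plates. Treatment: test compound, 48 hours, 5 concentrations. Analysis: linear interpolation between bracketing concentrations; unreached endpoints set to highest concentration. Here, GI50 denotes the concentration required for 50% inhibition of growth.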 The source made the active and inactive calls. Rule as the data show it: active = GI50 up to about 1.1 µM and inactive = higher.

Columns and labels:
Test in all cases: NCI-60 cell line screen, 48 h
[1] = tested on: COLO 205
[2] = tested on: SF-539
[3] = tested on: SK-OV-3
[4] = tested on: MCF7
[5] = tested on: MDA-MB-231
[6] = tested on: HCC 2998
[7] = tested on: HL-60
[8] = tested on: SK-MEL-2
[9] = tested on: NCI-H460
[10] = tested on: NCI-H522
[11] = tested on: EKVX
[12] = tested on: TK-10
[13] = tested on: RPMI-8226
[14] = tested on: HCT-15
[15] = tested on: LOX IMVI
[16] = tested on: A549
[17] = tested on: HT-29
[18] = tested on: UACC-62
[19] = tested on: M14
[20] = tested on: NCI/ADR-RES
[21] = tested on: UO-31
[22] = tested on: SW-620
[23] = tested on: MDA-MB-435
[24] = tested on: SF-295
[25] = tested on: UACC-257
[26] = tested on: MOLT-4
[27] = tested on: DU-145
[28] = tested on: ACHN
[29] = tested on: KM12
[30] = tested on: PC-3
[31] = tested on: 786-0
[32] = tested on: HCT-116
[33] = tested on: OVCAR-3
[34] = tested on: MDA-N
[35] = tested on: NCI-H226
[36] = tested on: OVCAR-5
[37] = tested on: IGROV-1
[38] = tested on: Hs-578T
[39] = tested on: SK-MEL-28
[40] = tested on: HOP-92
[41] = tested on: SF-268
[42] = tested on: SN12C
[43] = tested on: U-251
[44] = tested on: SR
[45] = tested on: CAKI-1
[46] = tested on: SK-MEL-5
[47] = tested on: OVCAR-8
[48] = tested on: NCI-H23
[49] = tested on: K562
[50] = tested on: BT-549
[51] = tested on: OVCAR-4

Measured: GI50

NC(=O)NC(=O)c1cccc(CNc2ccc(C(=O)N[C@@H](CCC(=O)O)C(=O)O)cc2)n1
inactive: [1] > 100 µM | [2] > 100 µM | [3] > 100 µM | [4] > 100 µM | [5] > 100 µM | [6] > 100 µM | [7] > 100 µM | [8] > 100 µM | [9] > 100 µM | [10] > 100 µM | [11] > 100 µM | [12] > 100 µM | [13] > 100 µM | [15] > 100 µM | [16] > 100 µM | [17] > 100 µM | [18] 4 µM | [19] > 100 µM | [20] > 100 µM | [21] > 100 µM | [22] > 100 µM | [23] > 100 µM | [24] > 100 µM | [25] > 100 µM | [26] > 100 µM | [27] > 100 µM | [28] > 100 µM | [29] > 100 µM | [30] > 100 µM | [31] > 100 µM | [32] > 100 µM | [33] > 100 µM | [34] > 100 µM | [35] > 100 µM | [36] > 100 µM | [37] > 100 µM | [38] > 100 µM | [39] > 100 µM | [40] > 100 µM | [41] > 100 µM | [42] > 100 µM | [43] > 100 µM | [44] > 100 µM | [45] > 100 µM | [46] > 100 µM | [47] > 100 µM | [48] > 100 µM | [49] > 100 µM | [50] > 100 µM | [51] > 100 µM
> 100 µM: [14]
